Experimental data published in ChEMBL document CHEMBL5303573, “Mapping human microbiome drug metabolism by gut bacteria and their genes” (Nature, 2019).

How the values were obtained:
[1] = The drug is tested on Anaerotruncus colihominis strain: DSM17241 for biotransformation. The drug concentrations were measured before and after a 12-h incubation by liquid-chromatography-coupled mass spectrometry (LC–MS); conditions: 2 µM
[2] = The drug is tested on Blautia luti strain: DSM14534 for biotransformation. The drug concentrations were measured before and after a 12-h incubation by liquid-chromatography-coupled mass spectrometry (LC–MS); type: ADME; set-up: dose 2 uM, timepoint 0 vs 12 hours; conditions: 2 µM
[3] = The drug is tested on Bifidobacterium ruminantium strain: fecal isolate for biotransformation. The drug concentrations were measured before and after a 12-h incubation by liquid-chromatography-coupled mass spectrometry (LC–MS); conditions: 2 µM
[4] = The drug is tested on Bacteroides caccae strain: ATCC43185 for biotransformation. The drug concentrations were measured before and after a 12-h incubation by liquid-chromatography-coupled mass spectrometry (LC–MS); conditions: 2 µM
[5] = The drug is tested on Eubacterium hallii strain: DSM3353 for biotransformation. The drug concentrations were measured before and after a 12-h incubation by liquid-chromatography-coupled mass spectrometry (LC–MS); conditions: anaerobutyricum hallii, 2 µM
[6] = The drug is tested on Coprococcus comes strain: ATCC27758 for biotransformation. The drug concentrations were measured before and after a 12-h incubation by liquid-chromatography-coupled mass spectrometry (LC–MS); type: ADME; set-up: dose 2 uM, timepoint 0 vs 12 hours; conditions: 2 µM
[7] = bacteroides fragilis, 12 h, 2 µM
Description: The drug is tested on Bacteroides fragilis strain: NCTC 9343 for biotransformation. The drug concentrations were measured before and after a 12-h incubation by liquid-chromatography-coupled mass spectrometry (LC–MS)

[8] = bacteroides thetaiotaomicron, 12 h, 2 µM
Description: The drug is tested on Bacteroides thetaiotaomicron strain: 7330 for biotransformation. The drug concentrations were measured before and after a 12-h incubation by liquid-chromatography-coupled mass spectrometry (LC–MS)

[9] = The drug is tested on Bacteroides finegoldii strain: DSM17565 for biotransformation. The drug concentrations were measured before and after a 12-h incubation by liquid-chromatography-coupled mass spectrometry (LC–MS); conditions: 2 µM
[10] = limosilactobacillus reuteri cf48-3a, 12 h, 2 µM
Description: The drug is tested on Lactobacillus reuteri CF48-3A strain: BEI HM-102 for biotransformation. The drug concentrations were measured before and after a 12-h incubation by liquid-chromatography-coupled mass spectrometry (LC–MS)

[11] = The drug is tested on Edwardsiella tarda strain: ATCC23685 for biotransformation. The drug concentrations were measured before and after a 12-h incubation by liquid-chromatography-coupled mass spectrometry (LC–MS); conditions: 2 µM
[12] = bifidobacterium adolescentis, 12 h, 2 µM
Description: The drug is tested on Bifidobacterium adolescentis strain: ATCC 15703 for biotransformation. The drug concentrations were measured before and after a 12-h incubation by liquid-chromatography-coupled mass spectrometry (LC–MS)

[13] = The drug is tested on Ruminococcus lactaris strain: ATCC29176 for biotransformation. The drug concentrations were measured before and after a 12-h incubation by liquid-chromatography-coupled mass spectrometry (LC–MS); conditions: 2 µM
[14] = The drug is tested on Anaerococcus hydrogenalis strain: DSM7454 for biotransformation. The drug concentrations were measured before and after a 12-h incubation by liquid-chromatography-coupled mass spectrometry (LC–MS); conditions: 2 µM
[15] = roseburia intestinalis, 12 h, 2 µM
Description: The drug is tested on Roseburia intestinalis strain: L1-82 for biotransformation. The drug concentrations were measured before and after a 12-h incubation by liquid-chromatography-coupled mass spectrometry (LC–MS)

[16] = The drug is tested on Clostridium scindens strain: ATCC35704 for biotransformation. The drug concentrations were measured before and after a 12-h incubation by liquid-chromatography-coupled mass spectrometry (LC–MS); conditions: 2 µM
[17] = The drug is tested on Bifidobacterium breve strain: DSM20213 for biotransformation. The drug concentrations were measured before and after a 12-h incubation by liquid-chromatography-coupled mass spectrometry (LC–MS); conditions: 2 µM
[18] = segatella copri, 12 h, 2 µM
Description: The drug is tested on Prevotella copri strain: DSM18205 for biotransformation. The drug concentrations were measured before and after a 12-h incubation by liquid-chromatography-coupled mass spectrometry (LC–MS)

[19] = parabacteroides distasonis, 12 h, 2 µM
Description: The drug is tested on Parabacteroides distasonis strain: ATCC8503 for biotransformation. The drug concentrations were measured before and after a 12-h incubation by liquid-chromatography-coupled mass spectrometry (LC–MS)

[20] = The drug is tested on Enterococcus faecalis strain: V583 for biotransformation. The drug concentrations were measured before and after a 12-h incubation by liquid-chromatography-coupled mass spectrometry (LC–MS); conditions: 2 µM

Row | SMILES | Bacterial Biotransformation [1] | Bacterial Biotransformation [2] | Bacterial Biotransformation [3] | Bacterial Biotransformation [4] | Bacterial Biotransformation [5] | Bacterial Biotransformation [6] | Bacterial Biotransformation [7] | Bacterial Biotransformation [8] | Bacterial Biotransformation [9] | Bacterial Biotransformation [10] | Bacterial Biotransformation [11] | Bacterial Biotransformation [12] | Bacterial Biotransformation [13] | Bacterial Biotransformation [14] | Bacterial Biotransformation [15] | Bacterial Biotransformation [16] | Bacterial Biotransformation [17] | Bacterial Biotransformation [18] | Bacterial Biotransformation [19] | Bacterial Biotransformation [20]
1 | CS(=O)(=O)O.OC(CCN1CCCCC1)(c1ccccc1)c1ccccc1 [PRIDINOL METHANESULFONATE] | Compound NOT metabolized | Compound NOT metabolized | Compound NOT metabolized | Compound NOT metabolized | Compound NOT metabolized | Compound NOT metabolized | Compound NOT metabolized | Compound NOT metabolized | Compound NOT metabolized | Compound NOT metabolized | Compound NOT metabolized | Compound NOT metabolized | Compound NOT metabolized | Compound NOT metabolized | Compound NOT metabolized | Compound NOT metabolized | Compound NOT metabolized | Compound NOT metabolized |  | 
2 | OCCOCCN1CCN(C2=Nc3ccccc3Sc3ccccc32)CC1 [QUETIAPINE] | Compound NOT metabolized | Compound NOT metabolized | Compound NOT metabolized | Compound NOT metabolized | Compound NOT metabolized | Compound NOT metabolized | Compound NOT metabolized | Compound NOT metabolized | Compound NOT metabolized | Compound NOT metabolized | Compound NOT metabolized | Compound NOT metabolized | Compound NOT metabolized | Compound NOT metabolized | Compound NOT metabolized | Compound NOT metabolized | Compound NOT metabolized | Compound NOT metabolized |  | 
3 | COC1=CC(=O)C[C@@H](C)[C@]12Oc1c(Cl)c(OC)cc(OC)c1C2=O [GRISEOFULVIN] | Compound NOT metabolized | Compound NOT metabolized | Compound NOT metabolized | Compound NOT metabolized | Compound NOT metabolized | Compound NOT metabolized | Compound metabolized |  | Compound NOT metabolized | Compound NOT metabolized | Compound NOT metabolized | Compound NOT metabolized |  | Compound NOT metabolized |  | Compound NOT metabolized |  | Compound metabolized | Compound metabolized | Compound NOT metabolized
4 | N=C(N)NC(=O)Cc1c(Cl)cccc1Cl [GUANFACINE] | Compound NOT metabolized | Compound NOT metabolized | Compound NOT metabolized | Compound NOT metabolized | Compound NOT metabolized | Compound NOT metabolized | Compound NOT metabolized |  | Compound NOT metabolized |  | Compound NOT metabolized | Compound NOT metabolized | Compound NOT metabolized | Compound NOT metabolized | Compound NOT metabolized |  |  |  | Compound NOT metabolized | Compound NOT metabolized
